Data as given in ChEMBL document CHEMBL4837181 (Eur J Med Chem, 2020).

Tests used:
[1] = Cmax in po BID dosed rat measured on day 28; format: ADME, organism-based; set-up: route oral, dose 180 mg/kg; details: in vivo, 180 mg/kg
[2] = Drug metabolism in rat assessed as indoximod formation by measuring indoximod Tmax at 20 to 900 mg/kg; format: ADME, organism-based; details: in vivo, dose 20-900 mg/kg
[3] = Drug metabolism in cynomolgus monkey assessed as indoximod formation of by measuring indoximod Tmax at 75 to 675 mg/kg, po administered as single dose; format: ADME, organism-based, Macaca fascicularis; details: in vivo, dose 75-675 mg/kg
Cytochrome P450 3A4 = Cytochrome P450 3A4 (Homo sapiens, UniProt P08684); assay: Induction of CYP3A4 in human hepatocytes; format: ADME, cell-based, Hepatocyte
Cytochrome P450 3A4, sequence (P08684 whole entry): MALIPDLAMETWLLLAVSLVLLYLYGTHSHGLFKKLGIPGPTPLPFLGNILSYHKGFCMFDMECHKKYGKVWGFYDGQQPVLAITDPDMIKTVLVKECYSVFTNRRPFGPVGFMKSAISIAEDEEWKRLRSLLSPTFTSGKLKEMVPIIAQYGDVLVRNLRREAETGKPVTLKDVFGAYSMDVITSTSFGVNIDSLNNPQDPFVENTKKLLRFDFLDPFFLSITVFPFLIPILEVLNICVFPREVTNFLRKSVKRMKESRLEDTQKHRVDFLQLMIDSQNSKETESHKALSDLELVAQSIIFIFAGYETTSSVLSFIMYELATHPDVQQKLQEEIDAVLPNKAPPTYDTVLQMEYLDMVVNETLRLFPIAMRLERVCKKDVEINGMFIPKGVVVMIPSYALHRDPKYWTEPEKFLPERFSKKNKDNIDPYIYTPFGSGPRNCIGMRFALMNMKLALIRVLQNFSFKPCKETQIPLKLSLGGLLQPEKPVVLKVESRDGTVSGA

[4] = Chemical stability of compound in PBS buffer assessed as compound remaining at pH 7.4 at 5 uM measured after 24 hrs by LC-MS/MS analysis; format: physicochemical; details: read-out: Stabilty
Cytochrome P450 1A2 = molecular target: T1, Cytochrome P450 1A2 (Homo sapiens, UniProt P05177); assay: Inhibition of CYP1A2 in human hepatocytes; format: ADME, cell-based, Hepatocyte
T1 sequence (P05177 whole entry): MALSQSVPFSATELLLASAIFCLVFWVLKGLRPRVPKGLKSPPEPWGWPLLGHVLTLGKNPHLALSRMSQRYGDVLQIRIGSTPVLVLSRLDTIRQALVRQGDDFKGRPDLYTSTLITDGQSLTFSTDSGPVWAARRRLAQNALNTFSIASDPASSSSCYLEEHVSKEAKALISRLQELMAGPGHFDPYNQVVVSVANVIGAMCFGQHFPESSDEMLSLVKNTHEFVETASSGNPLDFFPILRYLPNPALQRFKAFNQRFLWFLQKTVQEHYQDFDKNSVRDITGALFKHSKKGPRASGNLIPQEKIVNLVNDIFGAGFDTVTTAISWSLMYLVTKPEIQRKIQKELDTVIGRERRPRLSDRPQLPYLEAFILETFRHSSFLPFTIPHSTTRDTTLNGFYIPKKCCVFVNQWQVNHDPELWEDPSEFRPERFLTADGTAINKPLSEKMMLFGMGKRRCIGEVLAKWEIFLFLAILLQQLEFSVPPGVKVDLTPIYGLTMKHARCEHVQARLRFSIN

[5] = Drug metabolism in CD1 mouse hepatocytes assessed as unmetabolized compound at 10 uM incubated for 120 mins by UPLC-QTOF-PDA analysis; format: ADME, cell-based, Hepatocyte; details: read-out: Drug metabolism
OAT3 = OAT3 (Homo sapiens, UniProt Q8TCC7); assay: Inhibition of OAT3 (unknown origin) expressed in HEK293 cells; format: cell-based
OAT3, sequence (Q8TCC7 whole entry, looked up): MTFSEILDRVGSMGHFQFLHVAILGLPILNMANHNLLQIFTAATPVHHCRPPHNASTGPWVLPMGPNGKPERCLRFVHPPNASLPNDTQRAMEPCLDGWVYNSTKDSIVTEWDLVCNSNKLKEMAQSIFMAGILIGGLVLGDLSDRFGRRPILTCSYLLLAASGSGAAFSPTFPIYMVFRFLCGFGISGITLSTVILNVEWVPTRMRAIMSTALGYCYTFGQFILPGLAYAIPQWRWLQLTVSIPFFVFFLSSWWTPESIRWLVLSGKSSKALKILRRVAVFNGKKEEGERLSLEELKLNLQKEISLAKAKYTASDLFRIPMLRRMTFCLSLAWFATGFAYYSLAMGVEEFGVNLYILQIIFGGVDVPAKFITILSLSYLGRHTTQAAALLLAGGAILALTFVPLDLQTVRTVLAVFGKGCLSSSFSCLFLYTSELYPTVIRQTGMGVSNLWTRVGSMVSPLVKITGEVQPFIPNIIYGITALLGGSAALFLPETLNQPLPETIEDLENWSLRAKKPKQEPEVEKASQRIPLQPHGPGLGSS

[6] = Chemical stability of compound in PBS buffer assessed as compound remaining at pH 7.4 at 5 uM measured after 6 hrs by LC-MS/MS analysis; format: physicochemical; details: read-out: Stabilty
[7] = Dissociation constant, pKa of the compound; format: physicochemical
Cytochrome P450 2C8 = molecular target: T2, Cytochrome P450 2C8 (Homo sapiens, UniProt P10632); assay: Inhibition of CYP2C8 in human hepatocytes; format: ADME, cell-based, Hepatocyte
T2 sequence (P10632 whole entry): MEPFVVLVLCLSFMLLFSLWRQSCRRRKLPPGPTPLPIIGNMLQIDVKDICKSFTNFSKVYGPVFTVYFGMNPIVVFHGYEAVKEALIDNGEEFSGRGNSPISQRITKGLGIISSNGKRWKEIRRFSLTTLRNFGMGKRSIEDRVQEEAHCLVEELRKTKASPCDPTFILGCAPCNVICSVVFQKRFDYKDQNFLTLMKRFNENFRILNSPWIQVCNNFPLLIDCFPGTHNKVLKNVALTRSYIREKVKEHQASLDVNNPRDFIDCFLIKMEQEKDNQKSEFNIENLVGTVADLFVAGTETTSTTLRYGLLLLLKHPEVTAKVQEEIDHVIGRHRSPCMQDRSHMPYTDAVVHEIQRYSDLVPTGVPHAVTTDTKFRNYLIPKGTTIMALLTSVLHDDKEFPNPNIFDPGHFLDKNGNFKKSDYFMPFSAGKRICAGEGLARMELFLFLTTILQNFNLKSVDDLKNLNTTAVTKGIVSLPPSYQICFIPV

[8] = Drug metabolism in Beagle dog hepatocytes assessed as unmetabolized compound at 10 uM incubated for 120 mins by UPLC-QTOF-PDA analysis; format: ADME, cell-based, Canis lupus familiaris, Hepatocyte; details: read-out: Drug metabolism
[9] = Toxicity in rat assessed as distended abdomen at 150 to 180 mg/kg, po; format: organism-based; details: in vivo, dose 150-180 mg/kg
[10] = Solubility of the compound in FaSSIF; format: physicochemical
[11] = Solubility in water; format: physicochemical
[12] = AUC (0 to 24 hrs) in male cynomolgus monkey at 75 mg/kg, po BID measured on day 8; format: ADME, organism-based, Macaca fascicularis; set-up: time < 24 hr, route oral, dose 75 mg/kg; details: in vivo
[13] = Drug metabolism in cynomolgus monkey assessed as ratio of indoximod to parent compound at 15 mg/kg, iv administered as single dose; format: ADME, organism-based, Macaca fascicularis; details: in vivo
[14] = molecular target: T3, Solute carrier organic anion transporter family member 1B1 (Homo sapiens, UniProt Q9Y6L6); assay: Inhibition of OATP1B1 (unknown origin) expressed in HEK293 cells; format: cell-based
T3 sequence (Q9Y6L6 whole entry): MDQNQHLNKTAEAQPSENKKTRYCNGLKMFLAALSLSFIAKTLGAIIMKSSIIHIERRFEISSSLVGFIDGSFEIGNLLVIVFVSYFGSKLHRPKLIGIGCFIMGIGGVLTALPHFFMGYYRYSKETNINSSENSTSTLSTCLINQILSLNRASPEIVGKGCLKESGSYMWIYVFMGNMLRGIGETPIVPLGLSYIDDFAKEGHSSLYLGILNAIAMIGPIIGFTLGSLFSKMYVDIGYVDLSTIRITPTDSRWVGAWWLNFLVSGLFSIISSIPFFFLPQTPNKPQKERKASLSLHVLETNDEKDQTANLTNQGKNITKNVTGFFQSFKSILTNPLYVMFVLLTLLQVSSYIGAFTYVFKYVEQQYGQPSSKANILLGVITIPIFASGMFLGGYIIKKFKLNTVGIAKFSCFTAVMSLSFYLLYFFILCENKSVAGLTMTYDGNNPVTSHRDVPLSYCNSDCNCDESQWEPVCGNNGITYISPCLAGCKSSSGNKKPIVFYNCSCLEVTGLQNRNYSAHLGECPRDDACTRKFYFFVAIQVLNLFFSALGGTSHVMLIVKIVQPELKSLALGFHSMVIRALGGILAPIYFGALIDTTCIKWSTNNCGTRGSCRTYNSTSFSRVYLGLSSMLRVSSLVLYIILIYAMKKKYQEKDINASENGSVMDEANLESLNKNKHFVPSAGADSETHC

[15] = Cmax in po BID dosed cynomolgus monkey administered for 28 days; format: ADME, organism-based, Macaca fascicularis; set-up: route oral, time 28 day; details: in vivo
[16] = AUC (0 to 24 hrs) in female cynomolgus monkey at 225 mg/kg, po measured on day 1; format: ADME, organism-based, Macaca fascicularis; set-up: time < 24 hr, route oral, dose 225 mg/kg; details: in vivo
[17] = AUC (0 to 24 hrs) at steady state in […] at 1200 mg, BID; format: ADME; set-up: time < 24 hr, dose 1200 mg; details: in vivo
[18] = Half life in female cynomolgus monkey at 75 mg/kg, po measured on day 1; format: ADME, organism-based, Macaca fascicularis; details: in vivo
[19] = Stimulation of proliferation of CD8 positive T cells (unknown origin); format: functional, tissue-based; details: CD8-positive T cell
[20] = Cmax in mouse at 250 mg/kg administered bid; format: ADME, organism-based; set-up: dose 250 mg/kg; details: in vivo

CCOC(=O)[C@@H](Cc1cn(C)c2ccccc12)NC(=O)[C@@H](N)CC(C)C.Cl
Cmax [1]: 110 µM | Tmax [2]: 1 h | Tmax [3]: 1 h | Activity (Cytochrome P450 3A4): Not Active | remaining at 24 h, 5 µM [4]: 48% | IC50 (Cytochrome P450 1A2): > 50 µM | remaining at 2 h, 10 µM [5]: 0.3% | IC50 (OAT3): > 50 µM | remaining at 6 h, 5 µM [6]: 92% | pKa [7]: 7.76 | IC50 (Cytochrome P450 2C8): > 50 µM | remaining at 2 h, 10 µM [8]: 1.1% | Activity [9]: Toxic | solubility [10]: 19.1 mg/mL | solubility [11]: 19.8 mg/mL | AUC at 24 h [12]: 177 µM·h | Ratio [13]: 690 | IC50 [14]: > 50 µM

Cn1cc(C[C@@H](N)C(=O)O)c2ccccc21 [INDOXIMOD]
Cmax [15]: 103 µM | AUC(0-t) at 24 h [16]: 181 µM·h | AUC at 24 h [17]: 240 µM·h | half-life [18]: 108 min | EC50 [19]: ≥ 30 µM | Cmax [20]: 50 µM
